This is an account of results in ChEMBL document CHEMBL3507680, “University of Dundee, Gates Library screen for HepG2 cell viability”.

A short description of this data set: Human HepG2 cell viability assay in 384 well format. It counts as toxicity, cell-based. Further details: dose 125 nL, time 70.5 hour; cytotoxicity at 70.5 h: concentration not given beside the values. Conditions: HepG2 cells, read-out: Inhibition.

Take `O=C(CC1=CCCCC1)NCCc1csc(N2CCCC2)n1`: the cytotoxicity at 70.5 h is -0.0397%.
Then `CC(O)CN1CCN(C(=O)c2cnn(-c3ccc(Cl)cc3)c2)CC1` (stereo not drawn), with -5.02%.
Then `c1nc(N2CCCCC2Cn2cncn2)c2ccsc2n1` (stereo not drawn), with 14.7%.
Then `c1ccc(OCCN2CCCC(c3noc(C4CC4)n3)C2)cc1` (stereo not drawn), with -0.448%.
As for `O=C(O)c1ccc(F)c(S(=O)(=O)Nc2c(F)cccc2-n2cccn2)c1`, the cytotoxicity at 70.5 h is -5.11%.
`c1coc(CN2CCO[C@@]3(CCC[C@@H]3COCc3nccs3)C2)c1`: the cytotoxicity at 70.5 h was -13.3%.
Then `Cc1noc(C)c1CN1C[C@@H]2COC[C@@H](C(=O)N3CCCO3)[C@@H]2C1`, with 51.2%; and `O=C(c1cccs1)N1CC[C@@H]2[C@H]1CCC(=O)N2c1ccccc1`, with -16.9%.
Turning to `CC(=O)NCC(=O)N1CCN(Cc2cccnc2)c2ncccc2C1`, the cytotoxicity at 70.5 h was -15.1%.
Turning to `CC(=O)NCC(=O)N1CCN(Cc2ccncc2)c2ncccc2C1`, the cytotoxicity at 70.5 h was found to be 16.8%.
As to `c1cc(CN2CCOCC3(CCNCC3)C2)ccn1`, the cytotoxicity at 70.5 h amounted to 23%.
Under `CCS(=O)(=O)NC1CCc2c(ccc(=O)n2CC2CC2)C1` (stereo not drawn) stands -7.75%; under `COCC(=O)N1CCCC2(CCN(c3cncnc3)C2=O)C1` (stereo not drawn), -8.34%; under `Cc1occc1C(=O)N1CCCC2(CCN(c3ccsc3)C2=O)C1` (stereo not drawn), -6.53%.
Then `COCC(=O)N1CCCC2(CCN(c3ccccc3)C2=O)C1` (stereo not drawn), with -13.1%; and `COCCC(=O)N1CCC2(CN(Cc3cccc(F)c3)C2)C1`, with -7.85%; and `CN1CCN([C@H]2COC[C@@H]3CN(Cc4cccnc4)C[C@@H]32)CC1`, with -8.25%.
Consider `CCS(=O)(=O)NCC1Cn2nnc(-c3ccccc3)c2CO1` (stereo not drawn), for which the cytotoxicity at 70.5 h is -1.57%.
`c1cnc(NCC2Cn3nnc(-c4ccsc4)c3CO2)nc1` (stereo not drawn): the cytotoxicity at 70.5 h is -8.81%.
Under `c1cnc(NCC2Cn3nnc(-c4ccoc4)c3CO2)nc1` (stereo not drawn) stands -13.1%.
Then `O=C(CO)N1CCCC2(CCN(c3ccsc3)C2=O)C1` (stereo not drawn), with -8.82%; and `Cc1ccc2c(n1)N(CCN(C)C)CCN(C(=O)c1ccco1)C2`, with -4.83%.
Then `CCS(=O)(=O)N1CCn2cc(CN(C)Cc3ccco3)nc2C1`, with -2.7%.
Regarding `COCCC(=O)N1CC2(CCN(Cc3ccncc3)CC2)C1`, the cytotoxicity at 70.5 h was -1.69%.
For `O=C(c1cscn1)N1CCc2ncc(Cn3cncn3)n2CC1`, the cytotoxicity at 70.5 h is -6.09%.
Under `O=C(c1ccco1)N1CCn2cc(CN3CCCC3)nc2C1` stands -1.74%.
Then `Cc1ccoc1C(=O)N1CCn2cc(CN3CCCC3)nc2C1`, with -4.12%.
Regarding `COCCC(=O)N1CC[C@H]2O[C@@H](C)C[C@H]2C1`, the cytotoxicity at 70.5 h is -7.16%.
Under `O=C(c1ccno1)N1CCn2cc(CN3CCCCC3)nc2C1` stands -2.37%; under `O=C(c1ccc2[nH]ccc2c1)N1CCn2cc(CN3CCCC3)nc2C1`, -13.7%; under `Cc1cc(N2CCN(C(=O)Cc3ccc4c(c3)OCO4)CC2)cc(C)n1`, -9.94%.
On to `COCCc1ncc(CN2CCC3(CCCN(CC4CC4)C3)C2)cn1` (stereo not drawn), for which the cytotoxicity at 70.5 h was 0.629%.
Under `CCCN1C[C@H]2CC[C@@H]1CN(Cc1cccc(O)c1)C2` stands -9.57%; under `CNc1ncc(CN(C)C(=O)c2ccc(C3CCCO3)s2)cn1` (stereo not drawn), -3.31%.
For `COc1ncccc1C1CC(=O)NCc2nc3ccccn3c21` (stereo not drawn), the cytotoxicity at 70.5 h worked out at 1.55%.
Then `CCN(CC)CCCNc1nccc(-c2cn(C)nc2C)n1`, with -3.41%; and `CN(C)c1nc2c(c(N(C)Cc3n[nH]c4c3CCCC4)n1)CCNCC2`, with -7.02%.
Under `Cc1cc2ccccc2n1CCC(=O)NCCCc1nnc(N)s1` stands 33.9%; under `Cc1nc[nH]c1CN1CCn2nc(CN3Cc4ccccc4C3)cc2C1`, -7.32%; under `Cc1ccccc1C(C(=O)NCc1nc(-c2ncccn2)no1)N(C)C` (stereo not drawn), -6.36%.
Under `CCN(CC1CCCN(CCc2cccc(OC)c2)C1)C(=O)CSC` (stereo not drawn) stands -8.89%; under `CCc1ccccc1CN1CCn2nc(CNC(C)=O)cc2C1`, 59.7%; under `O=C1CCC2(CCOC2)CN1Cc1nncn1CCc1ccccc1` (stereo not drawn), 4.96%.
On to `CCN1CCC(CC(=O)NCCc2nc(C)cc(C)n2)CC1`, for which the cytotoxicity at 70.5 h was -3.38%.
Then `N[C@H]1CN(C(=O)c2ccccc2OCc2ccccc2)C[C@@H]1C1CC1`, with -11.7%; and `O=C(NC1CCc2ccccc2C1)C1CCN(Cc2ccco2)CC1` (stereo not drawn), with -2.67%; and `Cc1cc(C)cc(CN2CCN(C(=O)C3CCC3)[C@@H]3CS(=O)(=O)C[C@@H]32)c1`, with -5.88%.
Under `O=S(=O)(NCc1ccccc1)Nc1ccc(-n2cncn2)cc1` stands -5.87%; under `CCc1nc(CNc2nc3c(s2)c(C)nn3C)cs1`, -3.7%; under `CC(C)=CCN1CCC2(CC1)c1ccccc1[C@@H](N1CCSCC1)[C@@H]2O`, -4.97%.
With `Cc1cc(CN2CCC(CNC(=O)c3noc4c3CCCC4)C2)[nH]n1` (stereo not drawn), the cytotoxicity at 70.5 h was 13.3%.
Then `CCCN1CCN(C(=O)c2cccc(C)n2)[C@H]2CS(=O)(=O)C[C@H]21`, with 14.2%.
Then `CCS(=O)(=O)N1CCOC(CCCc2ccccc2)C1` (stereo not drawn), with 5.87%; and `CN1[C@H](CO)C[C@H](CNCc2ccc(CO)o2)[C@@H]1c1ccccc1F`, with -4.51%; and `NCC1CN(C(=O)c2cccc(-n3cccn3)c2)CCO1` (stereo not drawn), with 5.52%.
Under `O=C1COC2(CCN(CC3CC3)CC2)CN1c1ccsc1` stands -8.69%; under `CN(C)[C@@H]1CCN(C(=O)CC2CC2)[C@H]1Cc1cnn(C)c1`, -7.51%.
`CCN1C[C@H]2[C@@H](C1)N(S(=O)(=O)c1ccccc1)CC[C@H]2OC`: the cytotoxicity at 70.5 h was -2.93%.
In the case of `COCCN1C(=O)C[C@H]2[C@H]1CCN2Cc1ccccc1`, the cytotoxicity at 70.5 h is -4.06%.
Under `COCCCNC(=O)c1cc(-c2cnc(N3CCOCC3)nc2)cn1C` stands -6.15%.
Under `Cc1cccc(C(=O)N2CC[C@@H]3[C@H]2CCC(=O)N3c2ccccc2)n1` stands 17.8%.
Take `O=C(C1CCOCC1)N1CCO[C@H]2[C@H](Oc3ccccn3)CC[C@@H]21`: the cytotoxicity at 70.5 h came to 13.9%.
Then `Cc1occc1C(=O)N1C[C@H](Oc2ccccn2)[C@H]2OCCC[C@H]21`, with -10.8%; and `Cc1ccc(C(=O)N2CC[C@H]3[C@@H]2CCC(=O)N3c2ccccc2)cn1`, with -12.4%; and `O=C(NCC1CC1)[C@H]1CN(Cc2nccs2)C[C@H]2OCC[C@@H]12`, with -9.38%.
Under `Cc1occc1C(=O)N1CCO[C@H]2[C@H](OCc3ccccn3)CC[C@@H]21` stands -7.78%; under `O=C([C@@H]1CN(Cc2nccs2)C[C@H]2OCC[C@H]21)N1CCOCC1`, -7.1%.
Then `Cc1ncsc1CN1C[C@@H]2COC[C@]2(C(=O)NC(C)C)C1`, with -11.1%; and `O=C(c1cscn1)N1CCO[C@H]2[C@@H](Oc3ccccn3)CC[C@@H]21`, with -10.4%.
Regarding `Fc1ccc(N2CCOC3(COCCN(c4ncccn4)C3)C2)cc1` (stereo not drawn), the cytotoxicity at 70.5 h is -6.83%.
With `O=C(c1ccoc1)N1CCOC2(COCCN(c3ncccn3)C2)C1` (stereo not drawn), the cytotoxicity at 70.5 h was -7.67%.
Then `O=C(NC1CC1)[C@@H]1C[C@@H]2CCN(Cc3ccccc3)C[C@@H]2O1`, with 25.4%; and `CC(C)NC1CCc2c(ccc(=O)n2CC2CC2)C1` (stereo not drawn), with 4.51%; and `Cc1ncsc1CN1C[C@@H]2COC[C@]2(CNC(=O)c2ccco2)C1`, with -10.4%.
Then `O=C(NC1CC1)[C@@H]1C[C@@H]2CCN(Cc3ccccc3)C[C@H]2O1`, with -9.32%; and `c1cncc(CN2CC[C@H]3O[C@@H](COCC4CCOCC4)CC[C@H]32)c1`, with -7.03%.
On to `c1cncc(CN2CCn3c(Cn4cncn4)cnc3C2)c1`, for which the cytotoxicity at 70.5 h was -7.44%.
For the compound `O=C(c1ccco1)N1CCN2C[C@H](OCc3cccnc3)C[C@H]2C1`, the cytotoxicity at 70.5 h was -12.3%.
Then `c1cncc(OC[C@@H]2CCC[C@@]23CN(Cc2nccs2)CCO3)c1`, with -2.19%.
Consider `Cn1nnc2c1CCN(Cc1ccccn1)C2COCc1ccccc1` (stereo not drawn), for which the cytotoxicity at 70.5 h was determined as 14.7%.
Under `O=C([C@H]1CN(Cc2nccs2)C[C@H]2OCC[C@@H]12)N1CCCCO1` stands -10.9%.
Under `CN(Cc1cn2c(n1)CN(C1CCOCC1)CC2)Cc1ccco1` stands 24.6%; under `CN(Cc1cn2c(n1)CN(Cc1ccsc1)CC2)Cc1ccco1`, -6.14%; under `Cc1ccc2c(n1)N(CCN(C)C)CCN(C(=O)c1cccs1)C2`, -5.81%.
With `Fc1cccc(N2CCCC3(CN(Cc4nccs4)CCO3)C2)c1` (stereo not drawn), the cytotoxicity at 70.5 h is -13.6%.
Then `O=C(C1CCOC1)N1CCC2(CC1)COCCN(Cc1ccncc1)C2` (stereo not drawn), with -11.2%.
Then `CN(Cc1cn2c(n1)CN(Cc1nccs1)CC2)Cc1ccco1`, with -7.68%; and `CN(Cc1cn2c(n1)CN(CC1CCOC1)CC2)Cc1ccco1` (stereo not drawn), with 1.38%; and `CN(C)C(=O)CN1CC[C@@H]2O[C@@H](COCc3cccnc3)CC[C@@H]21`, with -1.43%.
Then `CN(C)[C@@H]1CCN(C(=O)Cc2cccs2)[C@H]1Cc1ccncc1`, with -8%; and `c1ccc(COC[C@H]2CC[C@H]3[C@H](CCN3Cc3ccccn3)O2)nc1`, with -10.3%.
As for `COc1ccc(CN2C[C@@H]3COC[C@H](N4CCN(C)CC4)[C@@H]3C2)cc1`, the cytotoxicity at 70.5 h is -5.19%.
`c1cc(CN2CCOCC3(CCN(CC4CCOCC4)CC3)C2)ccn1`: the cytotoxicity at 70.5 h was -7.05%.
